Earlier results on 3 molecules are cited in US20060269582A1, “Arthropod repellent comprising extracts and/or parts of the plant vitex agnus-castus” (Alpha-Biocare GmbH, priority 2002, published 2006).

In one data set the test system is ticks and mites. To be noted: state of the art.
For a further data set, the system named is ticks. To be noted: state of the art.

Take `CC1=C(C=O)C(CC=O)CC1` (stereo not shown) [2-(2-formyl-3-methyl-cyclopent-2-enyl)acetaldehyde]: the “efficiency / activity against ticks and mites” value with ticks and mites was “low or even not there”. Turning to `CCC(C)OC(=O)N1CCCCC1CCO` (stereo not shown) [Bayrepel], in the data set with ticks, the activity against ticks result is reported as “poor” and the “duration of protection against ticks” value is listed as “about two”. As to `CCN(CC)C(=O)c1cccc(C)c1` [DEET, N,N-diethyl-m-toluamide], the “efficiency / activity against ticks and mites” value in the data set with ticks and mites is recorded as “low efficiency”.
